PubChem BioAssay (NCI)
“And” between values parts separate entries of the source, which are not always exact repeats. Equal entries are not always repeated.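 96-well plates; 48 h exposure; 5 concentrations. Endpoints by linear interpolation between flanking doses. Not reached: highest tested concentration assigned. At the GI50, growth is halved. TGI marks complete inhibition of growth.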

Tests used:
Experiment in all cases: NCI tumour cell line growth inhibition, 48 h
SR leukemia = system: SR leukemia
CCRF-CEM leukemia = system: CCRF-CEM leukemia
786-0 renal = system: 786-0 renal
IGROV1 ovarian = system: IGROV1 ovarian
SK-MEL-28 melanoma = system: SK-MEL-28 melanoma
SK-MEL-5 melanoma = system: SK-MEL-5 melanoma
HOP-62 NSCLC = system: HOP-62 NSCLC
SNB-19 CNS = system: SNB-19 CNS
SF-539 CNS = system: SF-539 CNS
SN12C renal = system: SN12C renal

Row | SMILES | TGI (SR leukemia) | TGI (CCRF-CEM leukemia) | TGI (786-0 renal) | TGI (IGROV1 ovarian) | TGI (SK-MEL-28 melanoma) | TGI (SK-MEL-5 melanoma) | TGI (HOP-62 NSCLC) | TGI (SNB-19 CNS) | TGI (SF-539 CNS) | TGI (SN12C renal) | GI50 (SR leukemia) | GI50 (CCRF-CEM leukemia) | GI50 (786-0 renal) | GI50 (IGROV1 ovarian) | GI50 (SK-MEL-28 melanoma) | GI50 (SK-MEL-5 melanoma) | GI50 (HOP-62 NSCLC) | GI50 (SNB-19 CNS) | GI50 (SF-539 CNS) | GI50 (SN12C renal)
1 | CCCc1c2c([nH]c(=O)c1C)C(=O)c1[nH]c(=O)c(C)c(CCC)c1C2=O | 42.2 µM | 73.2 µM | > 100 µM | 88.4 µM | > 100 µM | 17.6 µM | > 100 µM | 55 µM | > 100 µM | 22.2 µM |  |  |  |  |  |  |  |  |  | 
2 | CC(O)C1OC(O)C2OC(C)(C)OC12 (stereo not drawn) | > 100 µM | > 100 µM | > 100 µM | > 100 µM | > 100 µM | > 100 µM | > 100 µM | > 100 µM | > 100 µM | > 100 µM |  |  |  |  |  |  |  |  |  | 
3 | CC(C)C[C@H](NC(=O)[C@H](Cc1ccccc1)n1ccc(N2CCCCC2)cc1=O)B(O)O | 11.6 µM | > 100 µM | > 100 µM | > 100 µM | 29.7 µM | 3.11 µM | 9.29 µM | > 100 µM | 0.604 µM | 11.1 µM | 259 nM | 429 nM | 825 nM | 5100 nM | 521 nM | 367 nM | 2630 nM | 0.956 µM | 206 nM | 1500 nM
4 | Cn1c(C(N)=O)cc2c1-c1nc(Nc3ccccc3)ncc1CCC2 | 33.1 µM | > 100 µM | 34.5 µM | 24.2 µM | 61.1 µM | 25.8 µM | 52.6 µM | > 100 µM | 28 µM | > 100 µM | 4470 nM | 6210 nM | 4550 nM | 3870 nM | 8740 nM | 11400 nM | 2960 nM | 11.5 µM | 3930 nM | 4180 nM
5 | COC(=O)/C=C/c1cc(O)c2c(c1)C(C(=O)OC)C(c1ccc(O)c(O)c1)O2 (stereo not drawn) | > 54.9 µM and 6 µM | 22.5 µM and > 100 µM | > 56.3 µM | 33.8 µM and > 79.5 µM | 60.8 µM and > 100 µM | 5.45 µM and 4.29 µM | > 72.4 µM and 46.5 µM | > 100 µM | 0.72 µM and 1.19 µM | > 100 µM | 51 nM and 36.9 nM | 89.2 nM | 626 nM | 822 nM and 509 nM |  | < 45.5 nM and 56.6 nM | 493 nM and 137 nM | 0.131 µM and 0.0868 µM | 255 nM | 614 nM
6 | CC(C)(C)[OH+][O-].[O-]c1ccc(Cl)cc1C=Nc1ccc(Cl)cc1[O-].[O]=[V] | > 100 µM | 35.3 µM | 27.1 µM | 14.2 µM | 53.8 µM | 26.3 µM | 74.1 µM | 66.2 µM | 32.5 µM | > 100 µM | 7790 nM | 3930 nM | 3730 nM | 542 nM | 19200 nM | 13000 nM | 23700 nM | 25.1 µM | 17800 nM | 24200 nM
7 | CN/N=C(/Cc1occc(=O)c1O)C(=O)Nc1ccc(C)c(C)c1 | > 100 µM | > 100 µM | > 100 µM | > 100 µM | > 100 µM | > 100 µM | > 100 µM | > 100 µM | > 100 µM | > 100 µM |  |  |  |  |  |  |  |  |  | 
8 | COc1cc(/C=C(/C)[N+](=O)[O-])ccc1O | 11.2 µM | 4.91 µM | 3.26 µM and 3.51 µM | 8.54 µM and 5.14 µM | 3.87 µM and 3.88 µM | 3.92 µM and 3.57 µM | 6.01 µM | 16.2 µM and 17.5 µM | 4 µM and 3.68 µM | 5.98 µM and 9.43 µM | 1120 nM | 1850 nM | 1790 nM and 1940 nM | 2890 nM and 1570 nM | 1810 nM and 1870 nM | 1910 nM and 1900 nM | 2460 nM | 4.55 µM and 5.02 µM | 2000 nM and 1810 nM | 2200 nM and 2430 nM
9 | C=C1C(=O)O[C@H]2[C@H]1CC/C(COC(=O)C(=O)c1c[nH]c3ccccc13)=C\CC[C@@]1(C)O[C@@H]21 | 14.3 µM | 13.1 µM | 3.72 µM | 4.39 µM | 4.23 µM | 4.13 µM | 4 µM | 26 µM | 3.76 µM | 7.11 µM | 1550 nM | 1270 nM | 1840 nM | 2110 nM | 2020 nM | 2060 nM | 1720 nM | 10.6 µM | 1750 nM | 2720 nM
10 | COc1ccc(C(=O)Cn2c(C(=O)c3ccc(OC)cc3)nc3ccccc32)cc1 |  | > 42.8 µM | > 100 µM | > 100 µM | > 100 µM | > 27.1 µM | > 100 µM | > 100 µM | > 100 µM | > 100 µM | 557 nM | 1690 nM | 4540 nM | 5090 nM | 3000 nM | 2360 nM | 5460 nM | 4.37 µM | 2800 nM | > 92900 nM
11 | Oc1c(CN2CCC(N3CCOCC3)CC2)cc(Cc2cc(CN3CCC(N4CCOCC4)CC3)c(O)c3ncccc23)c2cccnc12 | 20.5 µM | > 100 µM | 17.7 µM | 48.2 µM | 22.9 µM | 5.11 µM | 18.4 µM | > 100 µM | 2.9 µM | > 100 µM | 593 nM | 337 nM | 1070 nM | 610 nM | 1400 nM | 1590 nM | 356 nM | 0.67 µM | 1110 nM | 670 nM
